Laboratory results published in patent EP0970067B1, “(METHYLSULFONYL)PHENYL-2-(5H)-FURANONES WITH OXYGEN LINK AS COX-2 INHIBITORS” (Merck Frosst Canada & Co., priority 1997, dated 1998).

Columns and labels:
[1] = molecular target: T1, COX-2 (Homo sapiens, UniProt P35354); assay: Human whole blood assay, COX-2 (LPS-induced PGE2 production); format: cell-based; parameters: endogenous in cells; host or cells: fresh heparinized human whole blood from volunteers, stimulated with LPS; conditions: LPS 100 µg/ml, 24 hours at 37°C, read-out: COX-2 (IC50) HWB
T1 sequence (P35354 18-604): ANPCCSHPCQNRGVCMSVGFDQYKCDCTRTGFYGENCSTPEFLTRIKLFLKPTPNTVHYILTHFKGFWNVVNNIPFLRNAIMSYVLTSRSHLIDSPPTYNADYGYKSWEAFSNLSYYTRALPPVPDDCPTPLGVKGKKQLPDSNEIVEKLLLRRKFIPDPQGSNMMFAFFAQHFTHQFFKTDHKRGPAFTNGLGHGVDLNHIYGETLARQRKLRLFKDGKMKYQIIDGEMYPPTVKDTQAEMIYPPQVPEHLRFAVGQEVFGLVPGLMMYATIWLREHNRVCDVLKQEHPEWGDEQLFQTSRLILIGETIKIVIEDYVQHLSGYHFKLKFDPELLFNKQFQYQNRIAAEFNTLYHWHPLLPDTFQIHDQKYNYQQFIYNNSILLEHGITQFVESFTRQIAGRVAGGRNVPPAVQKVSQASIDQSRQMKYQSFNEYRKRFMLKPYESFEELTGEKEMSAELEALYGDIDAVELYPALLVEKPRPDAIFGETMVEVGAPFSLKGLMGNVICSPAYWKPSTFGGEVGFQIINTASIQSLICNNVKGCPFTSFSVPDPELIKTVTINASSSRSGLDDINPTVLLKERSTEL
Description: As well, platelets in whole blood contain a large amount of the COX-1 enzyme. Immediately following blood clotting, platelets are activated through a thrombin-mediated mechanism. This reaction results in the production of thromboxane B2 (TxB2) via activation of COX-1. Thus, the effect of test compounds on TxB2 levels following blood clotting can be examined and used as an index for COX-1 activity. Therefore, the degree of selectivity by the test compound can be determined by measuring the levels of PGE2 after LPS induction (COX-2) and TxB2 following blood clotting (COX-1) in the same assay.
Fresh blood is collected in heparinized tubes by venipuncture from both male and female volunteers. The subjects have no apparent inflammatory conditions and have not taken any NSAIDs for at least 7 days prior to blood collection. Plasma is immediately obtained from a 2mL blood aliquot to use as blank (basal levels of PGE2). The remaining blood is incubated with LPS (100 µg/ml final concentration, Sigma Chem, #L-2630 from E. coli; diluted in 0.1% BSA (Phosphate buffered saline) for 5 minutes at room temperature. Five hundred µL aliquots of blood are incubated with either 2µL of vehicle (DMSO) or 2µL of a test compound at final concentrations varying from 10nM to 30µM for 24 hours at 37°C. At the end of the incubation, the blood is centrifuged at 12,000 x g for 5 minutes to obtain plasma. A 100µL aliquot of plasma is mixed with 400µL of methanol for protein precipitation. The supernatant is obtained and is assayed for PGE2 using a radioimmunoassay kit (Amersham, RPA#530) after conversion of PGE2 to its methyl oximate derivative according to the manufacturer's procedure.

[2] = molecular target: T1, COX-2; assay: Whole cell COX-2 assay using CHO transfected cell line (PGE2 radioimmunoassay); format: cell-based; parameters: expressed in transfected cells; host or cells: CHO [hCOX-2], stably transfected with pCDNAIII; conditions: CHO [hCOX-2] cells; PGE2 synthesis in response to arachidonic acid
Experimental: Compounds are tested as inhibitors of cyclooxygenase activity in whole cell cyclooxygenase assays. These assays measure prostaglandin E2 synthesis in response to arachidonic acid, using a radioimmunoassay. Cells used for these assays are chinese hamster ovary (CHO) cell lines which have been stably transfected with an eukaryotic expression vector […] containing either the human Cox-1 or Cox-2 CDNA's. U937 cell microsomes are also used to measure Cox-1 activity.
Chinese hamster ovary (CHO) cell lines which have been stably transfected with an eukaryotic expression vector pCDNAIII containing either the human COX-1 or COX-2 cDNA's are used for the assay. These cell lines are referred to as CHO [hCOX-1] and CHO [hCOX-2], respectively. For cyclooxygenase assays, CHO[hCOX-1] cells from suspension cultures and CHO[hCOX-2] cells prepared by trypsinization of adherent cultures are harvested by centrifugation (300 x g, 10 min) and washed once in HBSS containing 15 mM HEPES, pH 7.4, and resuspended in HBSS, 15 mM HEPES, pH 7.4, at a cell concentration of 1.5 x 10^6 cells/ml. Drugs to be tested are dissolved in DMSO to 66.7-fold the highest test drug concentration. […] Cells (0.3 x 10^6 cells in 200 µl) are preincubated with 3 µl of the test drug or DMSO vehicle for 15 min at 37°C. Working solutions of peroxide-free AA (5.5 µM and 110 µM AA for the CHO [hCOX-1] and CHO [COX-2] assays, respectively) are prepared by a 10-fold dilution of a concentrated AA solution in ethanol into HBSS containing 15 mM HEPES, pH 7.4.
In the assay, inhibition is determined by measuring the amount of prostaglandin E2 (PGE2) synthesized in the presence of arachidonic acid, cyclooxygenase-1 or cyclooxygenase-2 and a putative inhibitor.

[3] = system: Rat Paw Edema; assay: Rat paw edema assay (carrageenan-induced); format: in vivo, Male Sprague-Dawley rats; conditions: po, 1 hr before subplantar carrageenan, paw volume measured three hr later
Experimental: Male Sprague-Dawley rats (150-200 g) are fasted overnight and are given, po, either vehicle (1% methocel or 5% Tween 80) or a test compound. One hr later, a line is drawn using a permanent marker at the level above the ankle in one hind paw to define the area of the paw to be monitored. The paw volume (V0) is measured using a plethysmometer (Ugo-Basile, Italy) based on the principle of water displacement. The animals are then injected subplantarly with […] of 1% carrageenan solution in saline (FMC Corp, Maine) into the paw using an insulin syringe with a 25-gauge needle (i.e. […] carrageenan per paw). Three hr later, the paw volume (V3) is measured and the increases in paw volume (V3 - VO) are calculated. The animals are sacrificed by CO2 asphyxiation and the absence or presence of stomach lesions scored. Data is compared with the vehicle-control values and percent inhibition calculated. All treatment groups are coded to eliminate observer bias.

IC50 [1] [nM]	IC50 [2] [nM]	Compound	ED50 [3] [mg/kg]
< 400		C=C(C)COC1=C(c2ccc(S(C)(=O)=O)cc2)C(C)(C)OC1=O [Example 18, 5,5-dimethyl-3-(2-methylallyloxy)-4-(4-methylsulfonylphenyl)-5H-furan-2-one]	
< 400	400	C[C@H](CO)COC1=C(c2ccc(S(C)(=O)=O)cc2)C(C)(C)OC1=O [Example 9, 3-(((2R)-3-hydroxy-2-methylpropyl)oxy)-5,5-dimethyl-4-(4-methylsulfonylphenyl)-5H-furan-2-one]	
< 400		CC1(C)OC(=O)C(OC2CCCC2(F)F)=C1c1ccc(S(C)(=O)=O)cc1 (stereo not drawn) [Example 25]	
1800	200	C=CCOC1=C(c2ccc(S(C)(=O)=O)cc2)C(C)(C)OC1=O [Example 15, 3-(Allyloxy)-5,5-dimethyl-4-(4-methylsulfonylphenyl)-5H-furan-2-one]	
2100	70	C=C(C)OC1=C(c2ccc(S(C)(=O)=O)cc2)C(C)(C)OC1=O [Example 7, 3-(Isopropenyloxy)-5,5-dimethyl-4-(4-methylsulfonylphenyl)-5H-furan-2-one]	
		C#CC(C)OC1=C(c2ccc(S(C)(=O)=O)cc2)C(C)(C)OC1=O (stereo not drawn) [Example 3, 5,5-Dimethyl-3-((1-methyl-2-propynyl)oxy)-4-(4-methylsulfonylphenyl)-5H-furan-2-one]	2.4
1900	50	C=CC(C)OC1=C(c2ccc(S(C)(=O)=O)cc2)C(C)(C)OC1=O (stereo not drawn) [Example 1, 5,5-Dimethyl-3-((1-methylallyl)oxy)-4-(4-methylsulfonylphenyl)-5H-furan-2-one]	
	400	CC1(C)OC(=O)C(OC2CCC3(CC2)OCCO3)=C1c1ccc(S(C)(=O)=O)cc1 [Example 16, 3-(1,4-dioxaspiro[4.5]dec-8-yloxy)-5,5-dimethyl-4-(4-methylsulfonyl-phenyl)-5H-furan-2-one]	
4700	500	CC(CO)OC1=C(c2ccc(S(C)(=O)=O)cc2)C(C)(C)OC1=O (stereo not drawn) [Example 12, 3-(2-Hydroxy-1-methylethoxy)-5,5-dimethyl-4-(4-methylsulfonyl-phenyl)-5H-furan-2-one]	
500	500	C[C@@H](CO)COC1=C(c2ccc(S(C)(=O)=O)cc2)C(C)(C)OC1=O [Example 8, 3-(((2S)-3-hydroxy-2-methylpropyl)oxy)-5,5-dimethyl-4(4-methyl-sulfonylphenyl)-5H-furan-2-one]	3.1
		CC1(C)OC(=O)C(OC(C(F)(F)F)C(F)(F)F)=C1c1ccc(S(C)(=O)=O)cc1 [Example 2, 5,5-Dimethyl-3-(1,1,1,3,3,3-hexafluoropropoxy)-4-(4-methylsulfonyl-phenyl)-5H-furan-2-one]	1
600	80	C=CC(C)(O)COC1=C(c2ccc(S(C)(=O)=O)cc2)C(C)(C)OC1=O (stereo not drawn) [Example 5, 3-((2-hydroxy-2-methyl-3-butenyl)oxy)-5,5-dimethyl-4-(4-methyl-sulfonyl)phenyl-5H-furan-2-one]	
600	200	C=C(CF)COC1=C(c2ccc(S(C)(=O)=O)cc2)C(C)(C)OC1=O [Example 20, 3-{[2-(fluoromethyl)allyl]oxy}-5,5-dimethyl-4-(4-methylsulfonyl-phenyl)-5H-furan-2-one]	
		CC1(C)OC(=O)C(OCC2(CF)CC2)=C1c1ccc(S(C)(=O)=O)cc1 [Example 23, 3-{[1-(fluoromethyl)cyclopropyl]methoxy}-5,5-dimethyl-4-(4-methylsulfonylphenyl)-5H-furan-2-one]	5.9
800	400	CC1(C)OC(=O)C(OC2CCCC2=O)=C1c1ccc(S(C)(=O)=O)cc1 (stereo not drawn) [Example 24, 3-((2-oxocyclopentyl)oxy)-5,5-dimethyl-4-(4-methylsulfonylphenyl)-5H-furan-2-one]	
5100	500	C#CCOC1=C(c2ccc(S(C)(=O)=O)cc2)C(C)(C)OC1=O [Example 14, 5,5-Dimethyl-4-(4-methylsulfonylphenyl)3-(2-propynyloxy)-5H-furan-2-one]	
< 400		CC1(COC2=C(c3ccc(S(C)(=O)=O)cc3)C(C)(C)OC2=O)CC1 [Example 19, 5,5-Dimethyl-3-[(1-methylcyclopropyl)methoxy]-4-(4-methylsulfonyl-phenyl)-5H-furan-2-one]	

Compound	IC50 [1] [nM]	IC50 [2] [nM]	ED50 [3] [mg/kg]
CC1(C)OC(=O)C(OCC2(CO)CC2)=C1c1ccc(S(C)(=O)=O)cc1 [Example 21, 3-{[1-(hydroxymethyl)cyclopropyl]methoxy}-5,5-dimethyl-4-(4-methylsulfonylphenyl)-2-5H-furan-2-one]	900	600	
CC1(C)OC(=O)C(OC2CCC(F)(F)CC2)=C1c1ccc(S(C)(=O)=O)cc1 [Example 17]	600	300	0.9
